Test results reported in patent publication US6358885B1, “Substituted phenylheterocyclic herbicides” (Mississippi State University, priority 1992, dated 2002).

Key:
corn [1] = test: Test B preemergence/postemergence greenhouse plant response rating 0 to 10; type: in vivo, Zea mays; conditions: 0 to 10 scale
In short: (§1)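 Postemergence treatment of plants two to eighteen cm tall ran alongside preemergence treatment of planted seed, each using compound in a non-phytotoxic solvent.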

ryegrass = test: Test C preemergence/postemergence greenhouse plant response rating 0 to 100; type: in vivo, Lolium multiflorum; conditions: POSTEMERGENCE; for Plant response rating Ryegrass: 62 g/ha, 0 to 100 scale
In short: (§2)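 Compounds in non-phytotoxic solvent went onto sandy loam before emergence (seeded one day earlier) or onto plants at the one-to-four leaf stage. Duck salad was treated via flood water (~2.5 cm, maintained) over silt loam.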

velvetleaf = test: Test B preemergence/postemergence greenhouse plant response rating 0 to 10; type: in vivo, Abutilon theophrasti; conditions: 0 to 10 scale
In short: as §1

morningglory = test: Test C preemergence/postemergence greenhouse plant response rating 0 to 100; type: in vivo, Ipomoea hederacea; conditions: POSTEMERGENCE; for Plant response rating, Morningglory: 62 g/ha, 0 to 100 scale
In short: as §2

purple nutsedge = test: Test B preemergence/postemergence greenhouse plant response rating 0 to 10; type: in vivo, Cyperus rotundus; conditions: 0 to 10 scale
In short: as §1

barley = test: as above; type: in vivo, Hordeum vulgare; conditions: 0 to 10 scale
In short: as §1

rice = test: Test C flood test plant response rating 0 to 100; type: in vivo, Oryza sativa; conditions: for Plant response rating Rice Japonica: flood test species listed under POSTEMERGENCE, 62 g/ha, 0 to 100 scale
In short: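 Compounds in non-phytotoxic solvent applied preemergence to sandy loam one day after planting, postemergence at the 1–4 leaf stage, or to ~2.5 cm floodwater over silt loam.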

rape = test: Test C preemergence/postemergence greenhouse plant response rating 0 to 100; type: in vivo, Brassica napus; conditions: POSTEMERGENCE; for Plant response rating, Rape: 62 g/ha, 0 to 100 scale
In short: as §2

sorghum = test: Test B preemergence/postemergence greenhouse plant response rating 0 to 10; type: in vivo, Sorghum bicolor; conditions: 0 to 10 scale
In short: as §1

crabgrass = test: Test C preemergence/postemergence greenhouse plant response rating 0 to 100; type: in vivo, Digitaria sanguinalis; conditions: POSTEMERGENCE; for Plant response rating, Crabgrass: 62 g/ha, 0 to 100 scale
In short: as §2

chickweed = test: Test B preemergence/postemergence greenhouse plant response rating 0 to 10; type: in vivo, Stellaria media; conditions: POSTEMERGENCE, 0 to 10 scale
In short: as §1

sugar beet = test: as above; type: in vivo, Beta vulgaris; conditions: 0 to 10 scale
In short: as §1

wild oat = test: Test C preemergence/postemergence greenhouse plant response rating 0 to 100; type: in vivo, Avena fatua; conditions: POSTEMERGENCE; for Plant response rating, Wild oat: 62 g/ha, 0 to 100 scale
In short: as §2

corn [2] = test: as above; type: in vivo, Zea mays; conditions: POSTEMERGENCE; for Plant response rating, Corn: 62 g/ha, 0 to 100 scale
In short: as §2

barnyardgrass = test: Test B preemergence/postemergence greenhouse plant response rating 0 to 10; type: in vivo, Echinochloa crus-galli; conditions: 0 to 10 scale
In short: as §1

blackgrass = test: as above; type: in vivo, Alopecurus myosuroides; conditions: 0 to 10 scale
In short: as §1

bedstraw = test: Test C preemergence/postemergence greenhouse plant response rating 0 to 100; type: in vivo, Galium aparine; conditions: POSTEMERGENCE; for Plant response rating, Bedstraw: 62 g/ha, 0 to 100 scale
In short: as §2

wheat = test: as above; type: in vivo, Triticum aestivum; conditions: POSTEMERGENCE; for Plant response rating, Wheat: 62 g/ha, 0 to 100 scale
In short: as §2

[3] = POSTEMERGENCE section, flood test, Rate 1 g/ha
[4] = POSTEMERGENCE section, flood test, Rate 4 g/ha
[5] = Rate 16 g/ha, under POSTEMERGENCE head (flood test species)

## C=CCN1C(=O)COc2cc(F)c(-c3nn4c(c3Cl)CCCC4)cc21 [Compound 33]
Corn [1]; POSTEMERGENCE, Rate 10 g/ha
  Plant response rating, Corn: 3
Corn [1]; POSTEMERGENCE, Rate 50 g/ha
  Plant response rating, Corn: 4
Corn [1]; PREEMERGENCE, Rate 50 g/ha
  Plant response rating, Corn: 0
ryegrass
  Plant response rating Ryegrass: 60
ryegrass; Rate 1 g/ha
  Plant response rating (0 to 100), Ryegrass: 30
ryegrass; Rate 4 g/ha
  Plant response rating (0 to 100), Ryegrass: 40
ryegrass; Rate 16 g/ha
  Plant response rating (0 to 100), Ryegrass: 50
velvetleaf; POSTEMERGENCE, Rate 10 g/ha
  Plant response rating, Velvetleaf: 10
velvetleaf; POSTEMERGENCE, Rate 50 g/ha
  Plant response rating, Velvetleaf: 9
velvetleaf; PREEMERGENCE, Rate 50 g/ha
  Plant response rating, Velvetleaf: 9
morningglory
  Plant response rating, Morningglory: 100
morningglory; Rate 1 g/ha
  Plant response rating (0 to 100), Morningglory: 50
morningglory; Rate 4 g/ha
  Plant response rating (0 to 100), Morningglory: 70
morningglory; Rate 16 g/ha
  Plant response rating (0 to 100), Morningglory: 90
Purple nutsedge; POSTEMERGENCE, Rate 10 g/ha
  Plant response rating, Nutsedge: 0
Purple nutsedge; POSTEMERGENCE, Rate 50 g/ha
  Plant response rating, Nutsedge: 5
Purple nutsedge; PREEMERGENCE, Rate 50 g/ha
  Plant response rating, Nutsedge: 0
barley; POSTEMERGENCE, Rate 10 g/ha
  Plant response rating, Barley: 4
barley; POSTEMERGENCE, Rate 50 g/ha
  Plant response rating, Barley: 4
barley; PREEMERGENCE, Rate 10 g/ha
  Plant response rating, Barley: 0
barley; PREEMERGENCE, Rate 50 g/ha
  Plant response rating, Barley: 1
rice; [3]
  Plant response rating (0 to 100), Rice Japonica: 20
rice; [4]
  Plant response rating (0 to 100), Rice Japonica: 50
rice; [5]
  Plant response rating (0 to 100), Rice Japonica: 60
rice
  Plant response rating Rice Japonica: 85
rape
  Plant response rating, Rape: 100
rape; Rate 1 g/ha
  Plant response rating (0 to 100), Rape: 100
rape; Rate 4 g/ha
  Plant response rating (0 to 100), Rape: 100
rape; Rate 16 g/ha
  Plant response rating (0 to 100), Rape: 100
sorghum; POSTEMERGENCE, Rate 10 g/ha
  Plant response rating, Sorghum: 6
sorghum; POSTEMERGENCE, Rate 50 g/ha
  Plant response rating, Sorghum: 6
sorghum; PREEMERGENCE, Rate 50 g/ha
  Plant response rating, Sorghum: 0
crabgrass
  Plant response rating, Crabgrass: 20
crabgrass; Rate 1 g/ha
  Plant response rating (0 to 100), Crabgrass: 0
crabgrass; Rate 4 g/ha
  Plant response rating (0 to 100), Crabgrass: 0
crabgrass; Rate 16 g/ha
  Plant response rating (0 to 100), Crabgrass: 0
chickweed; Rate 10 g/ha
  Plant response rating, Chickweed: 10
chickweed; Rate 50 g/ha
  Plant response rating, Chickweed: 10
Sugar beet; POSTEMERGENCE, Rate 10 g/ha
  Plant response rating, Sugar beet: 10
Sugar beet; POSTEMERGENCE, Rate 50 g/ha
  Plant response rating, Sugar beet: 10
Sugar beet; PREEMERGENCE, Rate 50 g/ha
  Plant response rating, Sugar beet: 10
Wild oat
  Plant response rating, Wild oat: 60
Wild oat; Rate 1 g/ha
  Plant response rating (0 to 100), Wild oat: 30
Wild oat; Rate 4 g/ha
  Plant response rating (0 to 100), Wild oat: 40
Wild oat; Rate 16 g/ha
  Plant response rating (0 to 100), Wild oat: 50
Corn [2]
  Plant response rating, Corn: 40
Corn [2]; Rate 1 g/ha
  Plant response rating (0 to 100), Corn: 20
Corn [2]; Rate 4 g/ha
  Plant response rating (0 to 100), Corn: 30
Corn [2]; Rate 16 g/ha
  Plant response rating (0 to 100), Corn: 30
barnyardgrass; POSTEMERGENCE, Rate 10 g/ha
  Plant response rating, Barnyardgrass: 4
barnyardgrass; POSTEMERGENCE, Rate 50 g/ha
  Plant response rating, Barnyardgrass: 7
barnyardgrass; PREEMERGENCE, Rate 10 g/ha
  Plant response rating, Barnyardgrass: 2
barnyardgrass; PREEMERGENCE, Rate 50 g/ha
  Plant response rating, Barnyardgrass: 3
blackgrass; POSTEMERGENCE, Rate 10 g/ha
  Plant response rating, Blackgrass: 4
blackgrass; POSTEMERGENCE, Rate 50 g/ha
  Plant response rating, Blackgrass: 5
blackgrass; PREEMERGENCE, Rate 10 g/ha
  Plant response rating, Blackgrass: 3
blackgrass; PREEMERGENCE, Rate 50 g/ha
  Plant response rating, Blackgrass: 5
bedstraw
  Plant response rating, Bedstraw: 100
bedstraw; Rate 1 g/ha
  Plant response rating (0 to 100), Bedstraw: 80
bedstraw; Rate 4 g/ha
  Plant response rating (0 to 100), Bedstraw: 90
bedstraw; Rate 16 g/ha
  Plant response rating (0 to 100), Bedstraw: 100
wheat
  Plant response rating, Wheat: 60
wheat; Rate 1 g/ha
  Plant response rating (0 to 100), Wheat: 30
wheat; Rate 4 g/ha
  Plant response rating (0 to 100), Wheat: 40
wheat; Rate 16 g/ha
  Plant response rating (0 to 100), Wheat: 50

## C#CCN1C(=O)COc2cc(F)c(-c3nn4c(c3Cl)CCCC4)cc21 [Compound 34]
Corn [1]; POSTEMERGENCE, Rate 10 g/ha
  Plant response rating, Corn: 4
Corn [1]; POSTEMERGENCE, Rate 50 g/ha
  Plant response rating, Corn: 4
Corn [1]; PREEMERGENCE, Rate 50 g/ha
  Plant response rating, Corn: 0
ryegrass
  Plant response rating Ryegrass: 30
ryegrass; Rate 1 g/ha
  Plant response rating (0 to 100), Ryegrass: 10
ryegrass; Rate 4 g/ha
  Plant response rating (0 to 100), Ryegrass: 20
ryegrass; Rate 16 g/ha
  Plant response rating (0 to 100), Ryegrass: 30
velvetleaf; POSTEMERGENCE, Rate 10 g/ha
  Plant response rating, Velvetleaf: 10
velvetleaf; POSTEMERGENCE, Rate 50 g/ha
  Plant response rating, Velvetleaf: 1
velvetleaf; PREEMERGENCE, Rate 50 g/ha
  Plant response rating, Velvetleaf: 10
morningglory
  Plant response rating, Morningglory: 100
morningglory; Rate 1 g/ha
  Plant response rating (0 to 100), Morningglory: 60
morningglory; Rate 4 g/ha
  Plant response rating (0 to 100), Morningglory: 100
morningglory; Rate 16 g/ha
  Plant response rating (0 to 100), Morningglory: 100
Purple nutsedge; POSTEMERGENCE, Rate 50 g/ha
  Plant response rating, Nutsedge: 0
Purple nutsedge; PREEMERGENCE, Rate 50 g/ha
  Plant response rating, Nutsedge: 0
barley; POSTEMERGENCE, Rate 10 g/ha
  Plant response rating, Barley: 4
barley; POSTEMERGENCE, Rate 50 g/ha
  Plant response rating, Barley: 4
barley; PREEMERGENCE, Rate 10 g/ha
  Plant response rating, Barley: 0
barley; PREEMERGENCE, Rate 50 g/ha
  Plant response rating, Barley: 2
rice; [3]
  Plant response rating (0 to 100), Rice Japonica: 20
rice; [4]
  Plant response rating (0 to 100), Rice Japonica: 25
rice; [5]
  Plant response rating (0 to 100), Rice Japonica: 35
rice
  Plant response rating Rice Japonica: 90
rape
  Plant response rating, Rape: 100
rape; Rate 1 g/ha
  Plant response rating (0 to 100), Rape: 85
rape; Rate 4 g/ha
  Plant response rating (0 to 100), Rape: 100
rape; Rate 16 g/ha
  Plant response rating (0 to 100), Rape: 100
sorghum; POSTEMERGENCE, Rate 10 g/ha
  Plant response rating, Sorghum: 4
sorghum; POSTEMERGENCE, Rate 50 g/ha
  Plant response rating, Sorghum: 6
sorghum; PREEMERGENCE, Rate 50 g/ha
  Plant response rating, Sorghum: 2
crabgrass
  Plant response rating, Crabgrass: 60
crabgrass; Rate 1 g/ha
  Plant response rating (0 to 100), Crabgrass: 10
crabgrass; Rate 4 g/ha
  Plant response rating (0 to 100), Crabgrass: 20
crabgrass; Rate 16 g/ha
  Plant response rating (0 to 100), Crabgrass: 30
chickweed; Rate 10 g/ha
  Plant response rating, Chickweed: 10
chickweed; Rate 50 g/ha
  Plant response rating, Chickweed: 10
Sugar beet; POSTEMERGENCE, Rate 10 g/ha
  Plant response rating, Sugar beet: 10
Sugar beet; POSTEMERGENCE, Rate 50 g/ha
  Plant response rating, Sugar beet: 10
Sugar beet; PREEMERGENCE, Rate 50 g/ha
  Plant response rating, Sugar beet: 9
Wild oat
  Plant response rating, Wild oat: 30
Wild oat; Rate 1 g/ha
  Plant response rating (0 to 100), Wild oat: 10
Wild oat; Rate 4 g/ha
  Plant response rating (0 to 100), Wild oat: 20
Wild oat; Rate 16 g/ha
  Plant response rating (0 to 100), Wild oat: 20
Corn [2]
  Plant response rating, Corn: 50
Corn [2]; Rate 1 g/ha
  Plant response rating (0 to 100), Corn: 20
Corn [2]; Rate 4 g/ha
  Plant response rating (0 to 100), Corn: 30
Corn [2]; Rate 16 g/ha
  Plant response rating (0 to 100), Corn: 40
barnyardgrass; POSTEMERGENCE, Rate 10 g/ha
  Plant response rating, Barnyardgrass: 4
barnyardgrass; POSTEMERGENCE, Rate 50 g/ha
  Plant response rating, Barnyardgrass: 5
barnyardgrass; PREEMERGENCE, Rate 10 g/ha
  Plant response rating, Barnyardgrass: 3
barnyardgrass; PREEMERGENCE, Rate 50 g/ha
  Plant response rating, Barnyardgrass: 4
blackgrass; POSTEMERGENCE, Rate 10 g/ha
  Plant response rating, Blackgrass: 4
blackgrass; POSTEMERGENCE, Rate 50 g/ha
  Plant response rating, Blackgrass: 6
blackgrass; PREEMERGENCE, Rate 10 g/ha
  Plant response rating, Blackgrass: 4
blackgrass; PREEMERGENCE, Rate 50 g/ha
  Plant response rating, Blackgrass: 6
bedstraw
  Plant response rating, Bedstraw: 100
bedstraw; Rate 1 g/ha
  Plant response rating (0 to 100), Bedstraw: 30
bedstraw; Rate 4 g/ha
  Plant response rating (0 to 100), Bedstraw: 95
bedstraw; Rate 16 g/ha
  Plant response rating (0 to 100), Bedstraw: 100
wheat
  Plant response rating, Wheat: 50
wheat; Rate 1 g/ha
  Plant response rating (0 to 100), Wheat: 20
wheat; Rate 4 g/ha
  Plant response rating (0 to 100), Wheat: 30
wheat; Rate 16 g/ha
  Plant response rating (0 to 100), Wheat: 40
